Data reported in patent publication US8980872B2, “Agent for preventing and/or treating functional gastrointestinal disorder” (Aska Pharmaceutical Co., Ltd., priority 2008, dated 2015).

Tested on: Water Avoidance Stress-Induced Hyperdefecation Model
Assay: Inhibition test of the number of stools using water avoidance stress-induced hyperdefecation model
Assay type: in vivo, rat
Protocol: Each of rats was freely allowed to have an enteral nutritional supplement, ELENTAL (0.25 g/mL; manufactured by Ajinomoto Co., Inc.) contained in a water-feeding bottle for seven days before a treatment with TNBS (2,4,6-trinitrobenzene sulfonic acid). The rats were fasted from the day before the TNBS administration day, and drinking water instead of ELENTAL was contained in the water-feeding bottle. On the day of the TNBS treatment (the rat: 8-week-old), 10 mL of physiological saline was intrarectally injected to the rat under anesthetization with ethyl ether to wash the enteral content. After the washing, the rat was allowed to stand longer than 2 hours, and 1 mL of 5 or 30 mg/head of TNBS in 40% ethanol/physiological saline (vehicle) was applied (injected) through the rectal injection under anesthetization with pentobarbital. Further, a silicone plug was inserted to the anus of the rat to stay the TNBS solution in the injection site, and the surrounding of the anus was fixed with an adhesive cloth elastic bandage (Elastopore). After about four hours of the TNBS treatment, the Elastopore and the silicone plug were removed from the rat, and 10 mL of physiological saline was intrarectally injected to the rat to discharge the enteral content. The animal was conventionally bled for four weeks from the TNBS treatment to recover from colitis. Moreover, to each of positive control rats, alosetron was orally administered singly before one hour of the stress loading.
Moreover, to each of positive control rats, alosetron (10 mg/kg) was orally administered singly before one hour of the water-stress loading. On the day of the measurement of the number of stools (the rat: 12-week-old), the animal was allowed to stand on a block (10 cm×5 cm×10 cm) installed in a water bath (about 50×30×40 cm, water depth: 5 cm) for one hour. However, each of animals on which no water environment stress was loaded (normal group) was allowed to stand in a waterless bath. The total number of stools excreted for the one hour after the animal was allowed to stand in the water bath was measured as the number of stools. Moreover, the nature of stools were compared and examined.

Row | SMILES | number of stools excreted for one hour compared with the control group (alosetron 10 mg/kg orally, single dose one hour before water-stress loading, p<0.001, t-test) | number of stools excreted for one hour compared with the control (rifaximin 100 mg/kg orally for 9 days, rats recovered from TNBS colitis, p<0.001, Dunnett test) | dose dependence of the defecation inhibition effect (rifaximin 6.25, 25 and 100 mg/kg orally for 9 days) | nature of stool (rifaximin-administered group, orally for 9 days) | motility of the intestinal tract (rifaximin-administered group, concluded from number and nature of stools)
1 | Cc1[nH]cnc1CN1CCc2c(c3ccccc3n2C)C1=O [alosetron] | showed a significantly effect compared with the control group |  |  |  | 
2 | CO[C@H]1/C=C/O[C@@]2(C)Oc3c(C)c(O)c4c(O)c(c5c(nc6cc(C)ccn65)c4c3C2=O)NC(=O)/C(C)=C\C=C\[C@H](C)[C@H](O)[C@@H](C)[C@@H](O)[C@@H](C)[C@H](OC(C)=O)[C@@H]1C [rifaximin] |  | decreased the number of stools compared with the control | depended on the dose | normalization in the nature of stool was observed | the motility of the intestinal tract was improved
